Legend:
histamine-induced asthma = experiment: Antiasthmatic effect on histamine-induced asthma in guinea pigs (latency period); assay type: in vivo; conditions: X±s, n = 5; for Post-administration latency period: 1 mg/kg oral gavage, sixty minutes after administration, histamine hydrochloride spray, no asthma within 8 minutes counted as 8 minutes; for Pre-administration latency period: baseline before dosing, histamine hydrochloride spray 0.8 mg/mL for 40 seconds
Description: The guinea pigs were placed in a polymethyl methacrylate bell jar and a histamine hydrochloride solution was sprayed ultrasonically (0.8 mg/mL) for 40 seconds. The time point at which the guinea pigs developed asthma was recorded. The time of convulsion and fall was taken as the latency period. Guinea pigs with a latency period exceeding 180 seconds were not selected. […] The guinea pigs were administered by oral gavage at a dose of 2 mL/kg·bw. Sixty minutes after the administration, the guinea pigs were placed in bell jars, and histamine hydrochloride solution was sprayed under the same conditions as in the previous selection. The latency period for the onset of asthma was recorded. […] The results were processed statistically.

[1] = Muscle tone of isolated ileal smooth muscle of guinea pigs contracted with histamine; conditions: Table 4; 3 minutes after adding 0.05 mL compound at maximum histamine contraction; x±s, n = 8
Description: (§1) The guinea pig was knocked unconscious with a wooden stick, and the abdomen was immediately dissected to separate the ileum about 15 cm in length. The contents of the intestinal segment were flushed with Tyrode's solution and placed in Tyrode's solution at a constant temperature of 37°C for later use, and oxygen was supplied simultaneously. The experimental intestinal tract (1 cm in length) was cut and placed into 20 ml of Tyrode's solution at a constant temperature of 37°C with a continuous oxygen supply. One end of the intestine was fixed on the ventilation hook and the other end was connected to the muscle tone transducer and led to the computer interface. The muscle tone value of the ileal smooth muscle was recorded with a BL system. The experiment was carried out after the intestinal segment contraction became stable.
(§2) After the ileal peristalsis curve stabilized, the tone values before adding the compound were recorded, and then 0.05 mL of histamine was added. […] The operation was repeated 8 times. The antispasmodic percentage was calculated using the following equation. Antispasmodic percentage; = (Tone value after adding histamine−Tone value after adding subject compound)/(Tone value after adding histamine) × 100% [formula]

histamine = experiment: as above; conditions: Table 4, x±s, n = 8; for Smooth muscle tone (g) After addition of histamine: after 0.05 mL of histamine, before compound; for Smooth muscle tone (g) Before administration: before histamine and compound; for Antispasmodic percentage (%): relative to tone after adding histamine, 3 min
Description: as §1, §2

[2] = system: isolated ileal smooth muscle; experiment: Muscle tone of isolated ileal smooth muscle of guinea pigs, compound alone; conditions: Table 3, no histamine, X±s, n = 8; for Smooth muscle tone (g) After administration: 5 minutes after adding the drug; for Smooth muscle tone (g) Before administration: before adding the drug; for Antispasmodic percentage (%): relative to tone before adding compound, 5 min
Description: as §1
After the ileum contraction curve stabilized, the tone values before adding the drug were recorded, then the drug or DMSO was added, and the average tone value of the ileum contraction curve at that point was recorded 5 minutes later. The operation was repeated 8 times. The antispasmodic percentage was calculated according to the following formula. Antispasmodic percentage =; (Tone value before adding subject compound−Tone value after adding subject compound)/(Tone value before adding subject compound) × 100% [formula]

[3] = Accelerated stability test; assay type: physicochemical; conditions: 40°C ± 2°C, relative humidity 75% ± 5%; for remaining at 730 h / remaining at 1460 h / remaining at 2190 h / remaining at 4380 h: storage 75% relative humidity, read-out: Content

Structure (SMILES) | Post-administration latency period (histamine-induced asthma) | Pre-administration latency period (histamine-induced asthma) | Smooth muscle tone (g) After administration [1] | Smooth muscle tone (g) After addition of histamine (histamine) | Smooth muscle tone (g) Before administration (histamine) | Antispasmodic percentage (%) (histamine) | Smooth muscle tone (g) After administration [2] | Smooth muscle tone (g) Before administration [2] | Antispasmodic percentage (%) [2] | Content ([3]; Month 0) | Description ([3]; Month 0) | Related substances ([3]; Month 0) | Description ([3]; Month 1) | Related substances ([3]; Month 1) | Description ([3]; Month 2) | Related substances ([3]; Month 2) | Description ([3]; Month 3) | Related substances ([3]; Month 3) | Description ([3]; Month 6) | Related substances ([3]; Month 6) | also measured
O=P(O)(O)OCCCCN1CCC(=C2c3ccc(Br)cc3CCc3cccnc32)CC1 [Compound III-12] | 359.80 ± 51.47 s | 99.91 ± 49.45 s | 1.21 ± 0.23 g | 3.45 ± 0.94 g | 1.82 ± 0.21 g | 64.92±17.49% | 1.25 ± 0.21 g | 1.74 ± 0.23 g | 28.16±21.10% | – | – | – | – | – | – | – | – | – | – | – | –
O=P(O)(O)OCCCCCN1CCC(=C2c3ccc(F)cc3CCc3cccnc32)CC1 [Compound III-14] | 372.40 ± 50.33 s | – | 1.15 ± 0.22 g | – | – | 66.07±19.34% | 1.18 ± 0.28 g | – | 31.79±17.77% | 99.6% | White powder | 0.03% | White powder | 0.06% | White powder | 0.11% | White powder | 0.15% | White powder | 0.32% | remaining at 730 h ([3]; Month 1): 99.5%; remaining at 1460 h ([3]; Month 2): 99.5%; remaining at 2190 h ([3]; Month 3): 99.5%; remaining at 4380 h ([3]; Month 6): 99.3%
O=P(O)(O)OCCCCCN1CCC(=C2c3ccc(Br)cc3CCc3cccnc32)CC1 [Compound III-15] | 359.61 ± 50.22 s | 99.11 ± 51.09 s | 1.17 ± 0.23 g | 3.40 ± 0.89 g | 1.80 ± 0.20 g | 65.59±18.88% | 1.13 ± 0.20 g | 1.74 ± 0.22 g | 35.05±18.37% | – | – | – | – | – | – | – | – | – | – | – | –
O=P(O)(O)OCOCCN1CCC(=C2c3ccc(Cl)cc3CCc3cccnc32)CC1 [Compound III-16] | 363.23 ± 50.55 s | 95.92 ± 50.22 s | 1.18 ± 0.25 g | 3.42 ± 0.92 g | 1.83 ± 0.21 g | 65.49±19.23% | 1.15 ± 0.24 g | 1.72 ± 0.20 g | 33.14±18.54% | – | – | – | – | – | – | – | – | – | – | – | –
O=P(O)(O)OCOCCCN1CCC(=C2c3ccc(Cl)cc3CCc3cccnc32)CC1 [Compound III-17] | 360.28 ± 51.00 s | 96.93 ± 53.19 s | 1.19 ± 0.29 g | 3.41 ± 0.84 g | 1.83 ± 0.25 g | 65.10±19.10% | 1.14 ± 0.28 g | 1.71 ± 0.23 g | 33.33±19.10% | – | – | – | – | – | – | – | – | – | – | – | –
O=P(O)(O)OCOCCCCN1CCC(=C2c3ccc(Cl)cc3CCc3cccnc32)CC1 [Compound III-18] | 354.29 ± 50.81 s | – | 1.18 ± 0.26 g | – | – | 65.50±19.34% | 1.13 ± 0.21 g | – | 34.30±18.66% | 99.7% | White powder | 0.03% | White powder | 0.06% | White powder | 0.12% | White powder | 0.16% | White powder | 0.34% | remaining at 730 h ([3]; Month 1): 99.6%; remaining at 1460 h ([3]; Month 2): 99.5%; remaining at 2190 h ([3]; Month 3): 99.5%; remaining at 4380 h ([3]; Month 6): 99.4%
O=P(O)(O)OCOCCCCCN1CCC(=C2c3ccc(Cl)cc3CCc3cccnc32)CC1 [Compound III-19] | 355.71 ± 50.33 s | 98.46 ± 52.04 s | 1.18 ± 0.28 g | 3.43 ± 0.94 g | 1.82 ± 0.21 g | 65.59±18.97% | 1.15 ± 0.24 g | 1.72 ± 0.25 g | 33.13±19.91% | – | – | – | – | – | – | – | – | – | – | – | –
O=P(O)(O)OCN1CCC(=C2c3ccc(Cl)cc3CCc3cccnc32)CC1 [Compound IV-1] | 362.39 ± 48.40 s | – | 1.20 ± 0.23 g | – | – | 65.12±19.01% | 1.18 ± 0.21 g | – | 30.99±19.20% | – | – | – | – | – | – | – | – | – | – | – | –
O=P(O)(O)OCCN1CCC(=C2c3ccc(Cl)cc3CCc3cccnc32)CC1 [Compound IV-2] | 383.10 ± 50.33 s | – | 1.18 ± 0.19 g | – | – | 65.56±19.28% | 1.19 ± 0.31 g | – | 33.14±18.39% | 99.6% | White powder | 0.03% | White powder | 0.05% | White powder | 0.09% | White powder | 0.13% | White powder | 0.26% | remaining at 730 h ([3]; Month 1): 99.6%; remaining at 1460 h ([3]; Month 2): 99.5%; remaining at 2190 h ([3]; Month 3): 99.5%; remaining at 4380 h ([3]; Month 6): 99.4%
O=P(O)(O)OCOCCN1CCC(=C2c3ccc(Cl)cc3CCc3cccnc32)CC1 [Compound IV-8] | 360.12 ± 52.01 s | – | 1.19 ± 0.28 g | – | – | 65.50±19.11% | 1.19 ± 0.29 g | – | 30.81±18.93% | 99.6% | White powder | 0.03% | White powder | 0.06% | White powder | 0.09% | White powder | 0.14% | White powder | 0.28% | remaining at 730 h ([3]; Month 1): 99.6%; remaining at 1460 h ([3]; Month 2): 99.5%; remaining at 2190 h ([3]; Month 3): 99.5%; remaining at 4380 h ([3]; Month 6): 99.3%
O=P(O)(O)OCOCCCCN1CCC(=C2c3ccc(Cl)cc3CCc3cccnc32)CC1 [Compound IV-10] | 365.28 ± 52.09 s | – | 1.20 ± 0.27 g | – | – | 65.31±19.57% | 1.19 ± 0.24 g | – | 30.41±20.04% | – | – | – | – | – | – | – | – | – | – | – | –
O=P(O)(O)OCOCCCCCN1CCC(=C2c3ccc(Cl)cc3CCc3cccnc32)CC1 [Compound IV-11] | 364.85 ± 51.11 s | – | 1.18 ± 0.28 g | – | – | 65.89±19.39% | 1.18 ± 0.31 g | – | 32.57±19.31% | – | – | – | – | – | – | – | – | – | – | – | –

Reference: patent publication EP4559923A1, “ANTIHISTAMINE COMPOUND, AND PREPARATION METHOD THEREFOR AND USE THEREOF” (HC Synthetic Pharmaceutical Co., Ltd., priority 2022, dated 2024)
